Measured values published in PubChem BioAssay AID2060487 (Molecular Pharmacology Branch, DTP, NCI, 2025).

Test system: 997537-175-T-J1-PDC complex spheroid viability
Assay: Anticancer human tumor 997537-175-T-J1-PDC patient-derived colon adenocarcinoma cell line growth inhibition [GQUAD]
Conditions: for IC50: curve of first compound; for viability, T/C: stronger effect = lower value
Procedure, shortened: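 Viability of tumor cells grown as complex spheroids with endothelial and stromal cells, exposed to drug combinations. Top concentration at or near clinical Cmax (else 10 microM), diluted in half-log increments.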

[1] = second compound 0.0316 µM, first compound 0.0316 µM
[2] = second compound 0.0316 µM, first compound 0.316 µM
[3] = second compound 0.1 µM, first compound 0.0316 µM
[4] = second compound 0.1 µM, first compound 0.316 µM
[5] = second compound 0.316 µM, first compound 0.0316 µM
[6] = second compound 0.316 µM, first compound 0.316 µM
[7] = second compound 1 µM, first compound 0.0316 µM
[8] = second compound 1 µM, first compound 0.316 µM
[9] = second compound 3.16 µM, first compound 0.0316 µM
[10] = second compound 3.16 µM, first compound 0.316 µM
[11] = second compound 10 µM, first compound 0.0316 µM
[12] = second compound 10 µM, first compound 0.316 µM
[13] = second compound 0.0316 µM, first compound 0.1 µM
[14] = second compound 0.0316 µM, first compound 1 µM
[15] = second compound 0.0316 µM, first compound 3.16 µM
[16] = second compound 0.0316 µM, first compound 10 µM
[17] = second compound 0.1 µM, first compound 0.1 µM
[18] = second compound 0.1 µM, first compound 1 µM
[19] = second compound 0.1 µM, first compound 3.16 µM
[20] = second compound 0.1 µM, first compound 10 µM
[21] = second compound 0.316 µM, first compound 0.1 µM
[22] = second compound 0.316 µM, first compound 1 µM
[23] = second compound 0.316 µM, first compound 3.16 µM
[24] = second compound 0.316 µM, first compound 10 µM
[25] = second compound 1 µM, first compound 0.1 µM
[26] = second compound 1 µM, first compound 1 µM
[27] = second compound 1 µM, first compound 3.16 µM
[28] = second compound 1 µM, first compound 10 µM
[29] = second compound 3.16 µM, first compound 0.1 µM
[30] = second compound 3.16 µM, first compound 1 µM
[31] = second compound 3.16 µM, first compound 3.16 µM
[32] = second compound 3.16 µM, first compound 10 µM
[33] = second compound 10 µM, first compound 0.1 µM
[34] = second compound 10 µM, first compound 1 µM
[35] = second compound 10 µM, first compound 3.16 µM
[36] = second compound 10 µM, first compound 10 µM
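Further: spheroids exposed to the agents for 7 days.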
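Wherever viability, T/C is given: 100% = DMSO vehicle control viability.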

Cn1ncnc1[C@H]1c2n[nH]c(=O)c3cc(F)cc(c23)N[C@@H]1c1ccc(F)cc1 + CN(C)c1ccc(Nc2c3ccc(NC(=O)CCN4CCCC4)cc3nc3cc(NC(=O)CCN4CCCC4)ccc23)cc1
IC50 (second compound 0.0316 µM): > 0.316 µM | IC50 (second compound 0.1 µM): > 0.316 µM | IC50 (second compound 0.316 µM): > 0.316 µM | IC50 (second compound 1 µM): > 0.316 µM | IC50 (second compound 3.16 µM): > 0.316 µM | IC50 (second compound 10 µM): > 0.316 µM | viability, T/C (second compound 0.0316 µM, first compound 0.000999 µM): 103% | viability, T/C (second compound 0.0316 µM, first compound 0.00316 µM): 88.8% | viability, T/C (second compound 0.0316 µM, first compound 0.00999 µM): 106% | viability, T/C [1]: 66.6% | viability, T/C (second compound 0.0316 µM, first compound 0.0999 µM): 81.1% | viability, T/C [2]: 68.1% | viability, T/C (second compound 0.1 µM, first compound 0.000999 µM): 100% | viability, T/C (second compound 0.1 µM, first compound 0.00316 µM): 97% | viability, T/C (second compound 0.1 µM, first compound 0.00999 µM): 91.9% | viability, T/C [3]: 63% | viability, T/C (second compound 0.1 µM, first compound 0.0999 µM): 102% | viability, T/C [4]: 82.1% | viability, T/C (second compound 0.316 µM, first compound 0.000999 µM): 94.8% | viability, T/C (second compound 0.316 µM, first compound 0.00316 µM): 102% | viability, T/C (second compound 0.316 µM, first compound 0.00999 µM): 95.2% | viability, T/C [5]: 91.2% | viability, T/C (second compound 0.316 µM, first compound 0.0999 µM): 79.7% | viability, T/C [6]: 86.8% | viability, T/C (second compound 1 µM, first compound 0.000999 µM): 84.7% | viability, T/C (second compound 1 µM, first compound 0.00316 µM): 70.5% | viability, T/C (second compound 1 µM, first compound 0.00999 µM): 79.2% | viability, T/C [7]: 86.5% | viability, T/C (second compound 1 µM, first compound 0.0999 µM): 98.5% | viability, T/C [8]: 79.6% | viability, T/C (second compound 3.16 µM, first compound 0.000999 µM): 69.4% | viability, T/C (second compound 3.16 µM, first compound 0.00316 µM): 83.6% | viability, T/C (second compound 3.16 µM, first compound 0.00999 µM): 94.6% | viability, T/C [9]: 91.3% | viability, T/C (second compound 3.16 µM, first compound 0.0999 µM): 94.8% | viability, T/C [10]: 85.9% | viability, T/C (second compound 10 µM, first compound 0.000999 µM): 77.1% | viability, T/C (second compound 10 µM, first compound 0.00316 µM): 87.5% | viability, T/C (second compound 10 µM, first compound 0.00999 µM): 91.2% | viability, T/C [11]: 78.6% | viability, T/C (second compound 10 µM, first compound 0.0999 µM): 109% | viability, T/C [12]: 104%

C=CC(=O)N1CCN(c2nc(=O)n(-c3c(C)ccnc3C(C)C)c3nc(-c4c(O)cccc4F)c(F)cc23)C(C)C1 (stereo unspecified) + Cc1[nH]c2ccc(F)cc2c1-c1nc2c3cccnc3c3ncccc3c2[nH]1
IC50 (second compound 0.0316 µM): > 10 µM | IC50 (second compound 0.1 µM): > 10 µM | IC50 (second compound 0.316 µM): > 10 µM | IC50 (second compound 1 µM): > 10 µM | IC50 (second compound 3.16 µM): > 10 µM | IC50 (second compound 10 µM): > 10 µM | viability, T/C [1]: 102% | viability, T/C [13]: 89.9% | viability, T/C [2]: 86.2% | viability, T/C [14]: 92.5% | viability, T/C [15]: 91.7% | viability, T/C [16]: 97.5% | viability, T/C [3]: 91.1% | viability, T/C [17]: 71.1% | viability, T/C [4]: 87.9% | viability, T/C [18]: 75.4% | viability, T/C [19]: 101% | viability, T/C [20]: 92% | viability, T/C [5]: 92.4% | viability, T/C [21]: 65.8% | viability, T/C [6]: 74.8% | viability, T/C [22]: 85.9% | viability, T/C [23]: 95.3% | viability, T/C [24]: 96.5% | viability, T/C [7]: 92.8% | viability, T/C [25]: 89.9% | viability, T/C [8]: 87.9% | viability, T/C [26]: 83.2% | viability, T/C [27]: 90.2% | viability, T/C [28]: 97.6% | viability, T/C [9]: 80.7% | viability, T/C [29]: 72.5% | viability, T/C [10]: 74.3% | viability, T/C [30]: 89% | viability, T/C [31]: 100% | viability, T/C [32]: 80% | viability, T/C [11]: 82.3% | viability, T/C [33]: 75.8% | viability, T/C [12]: 87.3% | viability, T/C [34]: 69.8% | viability, T/C [35]: 79.3% | viability, T/C [36]: 84.3%

O=C(c1cc(Cc2n[nH]c(=O)c3ccccc23)ccc1F)N1CCN(C(=O)C2CC2)CC1 + Cc1[nH]c2ccc(F)cc2c1-c1nc2c3cccnc3c3ncccc3c2[nH]1
IC50 (second compound 0.0316 µM): > 10 µM | IC50 (second compound 0.1 µM): > 10 µM | IC50 (second compound 0.316 µM): > 10 µM | IC50 (second compound 1 µM): > 10 µM | IC50 (second compound 3.16 µM): > 10 µM | IC50 (second compound 10 µM): > 10 µM | viability, T/C [1]: 99.8% | viability, T/C [13]: 96.1% | viability, T/C [2]: 93.2% | viability, T/C [14]: 81.6% | viability, T/C [15]: 79% | viability, T/C [16]: 102% | viability, T/C [3]: 91.8% | viability, T/C [17]: 95.7% | viability, T/C [4]: 77.1% | viability, T/C [18]: 67.8% | viability, T/C [19]: 89.5% | viability, T/C [20]: 94.1% | viability, T/C [5]: 76.1% | viability, T/C [21]: 103% | viability, T/C [6]: 90% | viability, T/C [22]: 88.5% | viability, T/C [23]: 98.4% | viability, T/C [24]: 94.6% | viability, T/C [7]: 76.9% | viability, T/C [25]: 96.7% | viability, T/C [8]: 73.6% | viability, T/C [26]: 101% | viability, T/C [27]: 106% | viability, T/C [28]: 109% | viability, T/C [9]: 90.7% | viability, T/C [29]: 89.9% | viability, T/C [10]: 100% | viability, T/C [30]: 81.4% | viability, T/C [31]: 94.4% | viability, T/C [32]: 94.4% | viability, T/C [11]: 71.9% | viability, T/C [33]: 84.1% | viability, T/C [12]: 96.7% | viability, T/C [34]: 60.5% | viability, T/C [35]: 79.8% | viability, T/C [36]: 83.6%
